Assay results published in patent US8470789B2, “Method for inducing and accelerating cells” (DCPrime B.V., priority 2008, dated 2013).

Legend:
CD34+ MUTZ3 cells = experiment: Drug-induced differentiation of isolated CD34+ MUTZ3 cells; format: cell-based, human; conditions: for share of induced CD1a+ cells also expressing Langerin: CD34+ sorted cells
Method: (§1) For mitoxantrone and doxorubicin cultures, 0.1-0.2 million cells/ml of MUTZ3 progenitors or CD34+, CD14+ and double negative (DN) magnetic bead sorted (MACS) MUTZ3 subsets (Miltenyi Biotec, Bergisch Gladbach, Germany) were seeded in 12-well plates in MUTZ3 routine medium or MUTZ3-DC/LC medium in the absence or presence of 1.04 nM, 2.08 nM, 5.6 nM, 16.7 nM mitoxantrone or 16.7 nM or 100 nM doxorubicin and were cultured for 72-96 hours before quantification of viable cells by trypan blue exclusion and phenotypic characterization by flowcytometry. DC and LC were matured (as above) on day 3 or 4 for 24 hours and were functionally tested in mixed leukocyte reaction or migration assays. In case of ABC transporter inhibition, 200 nM Ko-143 was added on day 0 to block BCRP activity.
(§2) Cells were immunophenotyped using the following FITC- and for PE-conjugated Mabs reactive against: CD1a (1:25), CD54 (1:25), CD80 (1:25), CD86 (1:25), CD40 (1:10) (PharMingen, San Diego, Calif.), CD14 (1:25), HLA-DR (1:25), DC-SIGN (1:10) (BD Biosciences, San Jose, Calif.), CD83 (1:10), CD34 (1:10), Langerin (1:10) (Immunotech, Marseille, France). In short, 2.5 to 5·10^4 cells were washed in PBS supplemented with 0.1% BSA and 0.02% NaN3 and incubated with specific or corresponding control Mabs for 30 minutes at 4° C. Where applicable, AnnexinV and/or PI (Propidium iodide) were added after marker staining and 10 minutes prior to analysis. Cells were washed and analyzed on a FACS-calibur flow cytometer (Becton and Dickinson, San Jose, Calif.) equipped with CellQuest analysis software and the results were expressed as mean or median fluorescence intensity or the percentage of positive cells.
To see whether the skewing effect was due to CD34^+ cell death, automatically leading to an altered CD34^+/CD14^+ ratio or whether it induced differentiation of CD34^+ cells into CD14^+ cells and LC, isolated CD34^+ and CD14^+ cells were incubated with 16.7 nM mitoxantrone or 100 nM doxorubicin for 72 hours and were analyzed for differentiation induction.

[1] = system: MUTZ3-DC and -LC cultures; experiment: Titration of mitoxantrone in MUTZ3-DC and -LC cultures, phenotype analysis; format: cell-based, human
Method: as §1, §2
In MUTZ3-DC and -LC cultures, a 2-step titration of the 16.7 nM mitoxantrone concentration was performed and DC/LC phenotypes were analyzed after 72-96 hours.

[2] = system: MUTZ3 subpopulations (CD14+, CD34+, DN); experiment: Apoptosis and cell death (Annexin V) in MACS-separated MUTZ3 subpopulations; format: cell-based, human
Method: as §1, §2

MUTZ3 progenitors [3] = experiment: Expansion and DC marker expression of MUTZ3 progenitors cultured with drug (flow cytometry); format: cell-based, human
Method: as §1, §2
Similar experiments were carried out with the drug doxorubicin.

MUTZ3-LC cultures = experiment: Acceleration of MUTZ3-LC differentiation in the presence of cytokines; format: cell-based, human
Method: The AML-derived CD34+ MUTZ3 cell line was cultured as described before (Masterson A. J. (2002) Blood 100, 701-703.). In brief, MUTZ3 progenitors were cultured in MEM-alpha (Minimum essential medium, Gibco) containing 20% fetal calves serum (FCS), 100 IU/ml sodium-penicillin, 100 microg/ml streptomycin, 2 mM L-glutamine (pen/strep/glut), 50 microM beta-mercaptoethanol (2ME) and 10% 5637 conditioned medium (MUTZ3 routine medium) in 12-well plates (Co-star) at a concentration of 0.2 million cells/ml and were passaged twice weekly. LC were cultured in MEM-alpha containing 20% FCS, pen/strep/glut, 2ME and 10 ng/ml TGF-beta 1 (Biovision, Mountain View, Calif.), 100 ng/ml rhGM-CSF (Sagramostim, Berlex) and 2.5 ng/ml TNFalpha (Strathmann Biotec) (MUTZ3-LC medium) for 10 days in 12-well plates at a concentration of 0.1 million cells/ml, adding cytokines at day 0, 4 and 7. Interstitial DC were cultured in MEM-alpha containing 20% FCS, pen/strep/glut, 2ME and 10 ng/ml IL-4 (R&D), 100 ng/ml rhGM-CSF and 2.5 ng/ml TNFalpha (MUTZ3-DC medium) Where applicable, immature DC and LC were matured, respectively, by adding 50 ng/ml TNFalpha, 100 ng/ml IL-6 (Strathmann Biotec), […] (Strathmann Biotec) and 1 microg/ml prostaglandin E2 (PGE2) (Sigma Aldrich) for 48 hours.
as §1, §2
Next we tested whether the addition of mitoxantrone or doxorubicin at the start of MUTZ3-LC cultures could boost differentiation. […] In FIG. 4A FSC/SSC plots of day 4 LC cultured with PBS or mitoxantrone and CD1a/Langerin expression on these cultures are depicted.

[4] = system: CD34+ heamatopoietic precursors isolated from human blood; experiment: Response of CD34+ heamatopoietic progenitors from blood to mitoxantrone; format: cell-based; conditions: 16.7 nM mitoxantrone
MUTZ3-DC = experiment: Trans-well migration towards CCL19 and CCL21; format: cell-based, human; conditions: day 4 mitoxantrone-generated DC
Method: as §1
(§3) If such mitoxantrone-generated DC are to be used for future vaccination strategies, they need to be functionally fully active. Therefore MUTZ3-DC cultured in the absence or presence of mitoxantrone, were analyzed in a trans-well assay for their capacity to migrate towards the chemokines CCL19 and CCL21 (FIG. 7A) and were tested in a MLR for their capacity to stimulate allogeneic T cell proliferation (FIG. 7B).

CD14+ MUTZ3 cells = experiment: Drug-induced differentiation of isolated CD14+ MUTZ3 cells; format: cell-based, human; conditions: 72 hours, vs PBS control
Method: as §1
as §2, with “In short, 2.5 to 5·10^4 cells were washed in PBS supplemented with 0.1% BSA and 0.02% NaN3 and incubated with specific or corresponding control Mabs for 30 minutes at 4° C. Where applicable, AnnexinV and/or PI (Propidium iodide) were added after marker staining and 10 minutes prior to analysis.” left out, “cells. […]” for “cells.”

[5] = system: MUTZ3-DC / peripheral blood lymphocytes; experiment: Mixed leukocyte reaction (MLR), T cell proliferation; format: cell-based, human; conditions: day 4 mitoxantrone-generated DC
Method: 1·10^2-3·10^4 DC were co-cultured with 1·10^5 peripheral blood lymphocytes for 4 days in 96-wells plates in IMDM (Iscove's modified dulbecco's medium) containing 10% human pooled serum (HPS), pen/strep/glut and 2ME. At day 4, 2.5 μCi/ml [^3H]-thymidine (6.7 Ci/mmol, MP Biomedicals, Irvine, Calif.) was added per well for 16 hours. Plates were harvested onto glass fiber filtermats (Packard Instruments, Groningen, The Netherlands) using a Skatron cell harvester (Skatron Instruments, Norway), and [^3H]-thymidine incorporation was quantified using a Topcount NXT Microbetacounter (Packard, Meriden, Conn.).
as §3

[6] = system: CD14+ monocytes isolated from blood; experiment: Response of CD14+ monocytes isolated from blood to mitoxantrone; format: cell-based, human
human skin DC = experiment: Human skin explant DC migration after intradermal injection; format: cell-based
Method: To establish whether mitoxantrone could be beneficial as a local adjuvant, human skin explants were intra-dermally injected with GM-CSF and IL-4 in combination with 2.08 nM, 5.6 nM or 16.7 nM mitoxantrone and 6 mm punch biopsies were floated in medium containing the same concentration of mitoxantrone. Skin DC were allowed to migrate from the biopsies for 2 days, after which they were harvested, quantified and phenotyped.

MUTZ3 progenitors [7] = experiment: 96 hour cytotox assay (Trypan blue exclusion); format: cell-based, human
Method: as §1
MUTZ3 progenitor cells were analyzed for their sensitivity to the cytostatic drug mitoxantrone. […] (An example of such trypan blue assay is: place a suitable volume of a cells suspension in appropriate tube add an equal volume of 0.4% Trypan blue and gently mix, let stand for 5 minutes at room temperature. Place 10 μl of stained cells in a hemocytometer and count the number of viable (unstained) and dead (stained) cells. Calculate the average number of unstained cells in each quadrant, and multiply by 2*10^4 to find cells/ml. The percentage of viable cells is the number of viable cells divided by the number of dead and viable cells, and the IC50 can be determined)

[8] = 2.08 nM mitoxantrone, mature day 4 MUTZ3-DC/LC

SMILES: O=C1c2c(O)ccc(O)c2C(=O)c2c(NCCNCCO)ccc(NCCNCCO)c21 [mitoxantrone]
- share of induced CD1a+ cells also expressing Langerin (CD34+ MUTZ3 cells; 16.7 nM mitoxantrone, 72 hours): approximately 50%
- CD1a and Langerin expression in CD34+ subset (CD34+ MUTZ3 cells; 16.7 nM mitoxantrone, 72 hours, n=3, p=0.02 CD1a, p=0.03 Langerin): significant increase
- effect on MUTZ3-DC and -LC differentiation ([1]; 2.08 nM mitoxantrone, 72-96 hours): robust effect
- HLA-DR expression vs control cultures ([1]; 2.08 nM mitoxantrone, day 4 vs day 7 control): even higher than on the control cultures
- amount of CD1a, Langerin, CD80, CD40 and CD83 expressing cells [1, 8]: increased
- expression levels of CD80, CD86, CD40 and HLA-DR [1, 8]: enhanced
- Langerin expression in MUTZ3-DC cultures ([1]; cultures supplied with mitoxantrone): increased
- apoptosis and cell death, CD34+ population ([2]; mitoxantrone, 72 hours): sensitive to the drug
- apoptosis and cell death, CD14+ population ([2]; mitoxantrone, 72 hours, Annexin V): not affected
- apoptosis and cell death, DN population ([2]; mitoxantrone, 72 hours, sensitivity relative to CD34+): to a lesser extent
- cell division (expansion) (MUTZ3 progenitors [3]; 5.6 nM and 16.7 nM mitoxantrone, 72 hours): dramatically compromising cell division
- differentiation of MUTZ3 progenitors (CD34+/CD14+ ratio, CD1a, Langerin, CD86, CD80) (MUTZ3 progenitors [3]; 5.6 nM and 16.7 nM mitoxantrone, 72 hours, no differentiating cytokines): drove the surviving MUTZ3 progenitors to differentiation
- expression levels of HLA-DR and CD54 (MUTZ3-LC cultures; 16.7 nM mitoxantrone, day 4): higher expression levels
- expression of co-stimulatory molecules CD80 and CD86 (MUTZ3-LC cultures; 16.7 nM mitoxantrone, day 4): enhanced expression
- percentage of CD14+ and CD34+ cells (MUTZ3-LC cultures; 16.7 nM mitoxantrone, day 4, 3 experiments, p=0.04 and p=0.02): significant decrease
- amount of cells expressing maturation marker CD83 (MUTZ3-LC cultures; 16.7 nM mitoxantrone, day 4, p=0.03): significant raise
- day on which fully differentiated cells were obtained (MUTZ3-LC cultures; mitoxantrone with cytokines, control cultures 8-10 days): 4 days
- cells CD1a hi Langerin+ (MUTZ3-LC cultures; single dose 16.7 nM mitoxantrone at day 0, read day 4, control 25%): 76%
- CD34+ and CD14+ cell content ([4]; 72 hours, Flt3-L and SCF): loss of most CD34 positive cells and an increase in CD14 positive cells
- percentage of CD1a+ Langerin+ cells ([4]; within 72 hours, LC-skewing cytokines, n=2): increase
- capacity to migrate towards CCL19 and CCL21 (MUTZ3-DC): comparable to day 7 matured control DC
- percentages of CD1a+ or Langerin+ cells in CD14+ cells (CD14+ MUTZ3 cells; 16.7 nM mitoxantrone): not affected
- capacity to stimulate allogeneic T cell proliferation [5]: equipped to induce T cell proliferation
- cell viability [6]: no effect
- differentiation induction [6]: nor was any differentiation induction observed
- increase in amount of migrated skin DC (human skin DC; 2.08 nM mitoxantrone with GM-CSF and IL-4, intradermal, 2 days): 50-60%
- increase in amount of migrated skin DC (human skin DC; 5.6 nM mitoxantrone with GM-CSF and IL-4, intradermal, 2 days): 50-60%
- amount of migrated skin DC (human skin DC; 16.7 nM mitoxantrone with GM-CSF and IL-4, intradermal, 2 days): only slightly increased
- amount of skin emigrating DC (human skin DC; low dose of mitoxantrone in plain medium, intradermal): increased the amount of skin emigrating DC
- IC50 (MUTZ3 progenitors [7]; Homo sapiens, 96 hour, Trypan blue exclusion, n=3): 1.5 ± 0.5 nM
- IC60 concentration on MUTZ3 progenitors (MUTZ3 progenitors [7]; cytotoxic effect): 5.6 nM
- IC70 concentration on MUTZ3 (MUTZ3 progenitors [7]; cytotoxic effect): 16.7 nM

SMILES: COc1ccc2c3c([nH]c2c1)[C@H](CC(C)C)N1C(=O)[C@H](CCC(=O)OC(C)(C)C)NC(=O)[C@@H]1C3 [Ko-143]
- abrogation of mitoxantrone-induced CD1a and Langerin expression by BCRP inhibitor (CD34+ MUTZ3 cells; 200 nM Ko-143 added on day 0, mitoxantrone-treated CD34+ MUTZ3 cells): could not abrogate

SMILES: COc1cccc2c1C(=O)c1c(O)c3c(c(O)c1C2=O)C[C@@](O)(C(=O)CO)C[C@@H]3O[C@H]1C[C@H](N)[C@H](O)[C@H](C)O1 [doxorubicin]
- CD1a and Langerin expression on CD34+ MUTZ3 cells (CD34+ MUTZ3 cells; 100 nM doxorubicin, 72 hours): induced CD1a and Langerin expression
- share of induced CD1a+ cells also expressing Langerin (CD34+ MUTZ3 cells; 100 nM doxorubicin, 72 hours): approximately 50%
- apoptosis and cell death in the three MUTZ3 subpopulations, compared with mitoxantrone ([2]; 100 nM doxorubicin): Comparable results
- LC differentiation of MUTZ3 progenitors (MUTZ3 progenitors [3]; 16.7 nM doxorubicin): no effects were observed
- LC differentiation of MUTZ3 progenitors (MUTZ3 progenitors [3]; IC70 concentration of doxorubicin (~100 nM)): induced LC differentiation of MUTZ3 progenitors
- percentages of CD1a+ or Langerin+ cells in CD14+ cells (CD14+ MUTZ3 cells; 100 nM doxorubicin): not affected
- IC70 concentration on MUTZ3 (MUTZ3 progenitors [7]; cytotoxic effect): ~100 nM
